These results are taken from ChEMBL document CHEMBL1201862, “PubChem BioAssay data set” (2004).

Calls of active or inactive are those of the source.

In one test the test system is HEK293. The test can be described thus: EBV LMP1 TES2 canonical NF-kB signalling blockers – cell-based, HEK293, luciferase, cherry-pick, dose response (AID 588343). The test is classed as functional. Particulars: Homo sapiens.
Test [1] deals with Dual specificity tyrosine-phosphorylation-regulated kinase 1A (Rattus norvegicus, UniProt Q63470). The test is classed as biochemical, Homo sapiens.
Test [2] in a line: off-target signal loss in HeLa-CEM21 co-culture – HeLa F-luc CTL cells, cherry-picked, counter-screen for HIV-1 Env fusion inhibitor project, dose response (AID 652040).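 Also: potency for signal decrease marking cytotoxic or nonspecific inhibition.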 The test is classed as functional, cell-based.
Test [3] in a line: HIV-1 AD8 envelope cell-cell fusion blockers – cherry-pick, dose response (AID 652062).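 Also: luciferase signal from cell-cell fusion driven by HIV-1 clade B AD8 Env; potency is for inhibitors of fusion seen as a drop in luminescence.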 The test is classed as functional, cell-based.
Test [4] in a line: blockers of HIV-1 ZM109 envelope-driven cell-cell fusion – HeLa effector, CEM target cells, luciferase, cherry-pick, dose response (AID 652058).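 Also: luciferase signal from HIV-1 Env mediated cell-cell fusion of effector and target cells.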 The test is classed as functional, cell-based.
Test [5] is described as follows: blockers of HIV-1 envelope-mediated cell-cell fusion – cherry-pick, dose response (AID 652057). The test is classed as functional, cell-based.
A further test concerns the target T1, Caspase-3 (Homo sapiens, UniProt P42574).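 Also: Dose-response selectivity test against caspase-3 for candidate inhibitors of sentrin-specific proteases (SENPs).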
T1 sequence (P42574 whole entry): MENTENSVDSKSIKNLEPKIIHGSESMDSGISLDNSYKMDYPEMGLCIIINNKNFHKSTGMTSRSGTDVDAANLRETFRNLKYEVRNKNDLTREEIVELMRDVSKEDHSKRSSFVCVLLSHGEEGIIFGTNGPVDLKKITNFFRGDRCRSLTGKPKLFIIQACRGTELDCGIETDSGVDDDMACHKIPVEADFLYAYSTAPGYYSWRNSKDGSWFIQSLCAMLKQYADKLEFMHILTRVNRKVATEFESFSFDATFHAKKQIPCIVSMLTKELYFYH
The class given is functional.

For test [6], the target named is T2, Sentrin-specific protease 6 (Homo sapiens, UniProt Q9GZR1).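 Also: Luminescence-based dose-response confirmatory assay of SENP6 inhibition, following up an ultra-high-throughput screen.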
T2 sequence (Q9GZR1 whole entry): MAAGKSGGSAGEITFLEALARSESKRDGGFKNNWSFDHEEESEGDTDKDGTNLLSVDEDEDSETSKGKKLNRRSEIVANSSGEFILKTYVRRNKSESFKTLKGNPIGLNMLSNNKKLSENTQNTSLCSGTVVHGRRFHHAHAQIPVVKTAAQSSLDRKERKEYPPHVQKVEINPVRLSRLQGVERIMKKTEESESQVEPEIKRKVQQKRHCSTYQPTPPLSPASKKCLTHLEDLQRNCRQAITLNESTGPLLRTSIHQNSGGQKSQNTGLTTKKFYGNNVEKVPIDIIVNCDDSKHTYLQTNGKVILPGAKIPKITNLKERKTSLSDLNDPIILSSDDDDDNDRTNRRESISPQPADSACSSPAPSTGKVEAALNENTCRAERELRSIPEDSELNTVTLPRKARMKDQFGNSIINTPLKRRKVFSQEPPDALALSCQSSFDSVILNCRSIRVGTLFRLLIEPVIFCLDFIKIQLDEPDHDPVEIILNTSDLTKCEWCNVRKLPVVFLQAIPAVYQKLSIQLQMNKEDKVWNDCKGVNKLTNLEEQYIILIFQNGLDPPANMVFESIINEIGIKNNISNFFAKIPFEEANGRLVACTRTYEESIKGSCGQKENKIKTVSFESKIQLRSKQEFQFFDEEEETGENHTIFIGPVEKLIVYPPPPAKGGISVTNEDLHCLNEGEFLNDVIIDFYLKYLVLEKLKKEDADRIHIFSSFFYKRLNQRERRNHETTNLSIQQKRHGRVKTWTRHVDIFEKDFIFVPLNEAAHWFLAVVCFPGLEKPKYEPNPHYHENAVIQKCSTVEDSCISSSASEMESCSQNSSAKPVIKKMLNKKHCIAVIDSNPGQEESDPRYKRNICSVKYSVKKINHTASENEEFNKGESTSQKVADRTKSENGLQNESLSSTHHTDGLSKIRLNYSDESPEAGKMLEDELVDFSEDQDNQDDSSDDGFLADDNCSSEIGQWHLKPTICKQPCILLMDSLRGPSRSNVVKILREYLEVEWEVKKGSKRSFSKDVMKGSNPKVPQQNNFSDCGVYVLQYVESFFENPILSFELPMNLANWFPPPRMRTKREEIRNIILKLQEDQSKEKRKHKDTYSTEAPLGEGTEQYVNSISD
The class given is functional.

Test [7] deals with T3, Sentrin-specific protease 8 (Homo sapiens, UniProt Q96LD8).
T3 sequence (Q96LD8 whole entry): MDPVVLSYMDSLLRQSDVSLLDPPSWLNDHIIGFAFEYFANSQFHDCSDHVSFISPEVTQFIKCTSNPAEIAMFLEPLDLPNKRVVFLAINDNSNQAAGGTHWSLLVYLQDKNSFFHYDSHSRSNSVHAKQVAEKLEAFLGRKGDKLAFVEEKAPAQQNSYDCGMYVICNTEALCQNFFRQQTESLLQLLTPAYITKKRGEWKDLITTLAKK
The class given is functional.

Test [8] has as its target T4, Sentrin-specific protease 7 (Homo sapiens, UniProt Q9BQF6).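 Also: Luminescence-based dose-response confirmation of ultra-high-throughput screening hits, measuring inhibition of SENP7.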
T4 sequence (Q9BQF6 whole entry): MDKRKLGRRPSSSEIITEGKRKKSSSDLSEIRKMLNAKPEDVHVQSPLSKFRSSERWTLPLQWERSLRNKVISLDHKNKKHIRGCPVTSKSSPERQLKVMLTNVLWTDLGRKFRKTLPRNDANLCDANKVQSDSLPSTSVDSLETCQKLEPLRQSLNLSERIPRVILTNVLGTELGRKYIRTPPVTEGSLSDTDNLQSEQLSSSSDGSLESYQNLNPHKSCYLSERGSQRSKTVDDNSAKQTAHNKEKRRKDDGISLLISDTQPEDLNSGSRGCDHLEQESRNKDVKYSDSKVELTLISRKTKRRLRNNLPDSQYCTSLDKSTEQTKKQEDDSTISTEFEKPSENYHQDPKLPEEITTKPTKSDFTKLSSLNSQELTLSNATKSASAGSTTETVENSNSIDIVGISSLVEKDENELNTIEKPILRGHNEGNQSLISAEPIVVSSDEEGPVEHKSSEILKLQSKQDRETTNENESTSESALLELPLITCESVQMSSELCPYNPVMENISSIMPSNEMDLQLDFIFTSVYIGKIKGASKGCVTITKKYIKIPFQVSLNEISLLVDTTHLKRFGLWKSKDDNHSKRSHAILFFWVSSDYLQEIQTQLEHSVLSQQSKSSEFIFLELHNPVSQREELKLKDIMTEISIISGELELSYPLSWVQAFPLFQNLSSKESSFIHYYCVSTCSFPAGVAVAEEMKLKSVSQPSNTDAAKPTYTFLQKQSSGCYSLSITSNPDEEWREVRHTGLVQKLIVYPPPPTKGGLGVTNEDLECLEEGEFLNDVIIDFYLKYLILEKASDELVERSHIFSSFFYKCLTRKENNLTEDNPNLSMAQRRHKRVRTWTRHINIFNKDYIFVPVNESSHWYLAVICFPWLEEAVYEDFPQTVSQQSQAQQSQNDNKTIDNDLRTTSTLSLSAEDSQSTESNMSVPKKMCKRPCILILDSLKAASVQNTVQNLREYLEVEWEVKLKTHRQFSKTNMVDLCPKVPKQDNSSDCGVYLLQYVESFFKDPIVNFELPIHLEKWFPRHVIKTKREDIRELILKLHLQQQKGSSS
The class given is functional.

The next test relates to HeLa. In words: ATP-based viability loss in HeLa cells – cell-based, CellTiter-Glo luminescence, cherry-pick samples, cytotoxicity control for MITF activator project, dose response (AID 540259). The test is classed as functional. The conditions noted are these: Homo sapiens.
Test [9] has as its target T5, Rac GTPase-activating protein 1 (Homo sapiens, UniProt Q9H0H5).
T5 sequence (Q9H0H5 whole entry): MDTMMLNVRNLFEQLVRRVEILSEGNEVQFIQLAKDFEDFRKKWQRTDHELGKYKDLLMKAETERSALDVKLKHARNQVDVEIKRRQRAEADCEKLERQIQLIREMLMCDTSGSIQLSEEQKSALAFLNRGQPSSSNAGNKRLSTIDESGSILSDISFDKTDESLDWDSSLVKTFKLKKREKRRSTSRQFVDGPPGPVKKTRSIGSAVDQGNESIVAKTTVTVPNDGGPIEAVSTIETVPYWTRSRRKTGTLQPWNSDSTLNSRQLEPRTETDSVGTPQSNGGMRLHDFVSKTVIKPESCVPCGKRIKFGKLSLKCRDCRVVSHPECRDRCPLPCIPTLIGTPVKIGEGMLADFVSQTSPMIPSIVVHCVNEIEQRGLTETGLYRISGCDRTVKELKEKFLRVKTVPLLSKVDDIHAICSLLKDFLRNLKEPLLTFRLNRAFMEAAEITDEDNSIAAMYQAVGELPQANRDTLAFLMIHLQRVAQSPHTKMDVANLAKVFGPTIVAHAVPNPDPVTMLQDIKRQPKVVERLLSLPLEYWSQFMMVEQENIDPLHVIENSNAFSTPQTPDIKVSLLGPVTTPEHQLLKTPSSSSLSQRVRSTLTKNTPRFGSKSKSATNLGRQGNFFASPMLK
The test can be described thus: blockers of MgcRacGAP-driven Rac1 GTP hydrolysis – biochemical, ADP Hunter fluorescence, primary and confirmatory, confirmation (AID 624330). The class given is functional.

Test [10] concerns the target T6, Adenosylmethionine-8-amino-7-oxononanoate aminotransferase (Mycobacterium tuberculosis, UniProt P9WQ81).
T6 sequence (P9WQ81 whole entry): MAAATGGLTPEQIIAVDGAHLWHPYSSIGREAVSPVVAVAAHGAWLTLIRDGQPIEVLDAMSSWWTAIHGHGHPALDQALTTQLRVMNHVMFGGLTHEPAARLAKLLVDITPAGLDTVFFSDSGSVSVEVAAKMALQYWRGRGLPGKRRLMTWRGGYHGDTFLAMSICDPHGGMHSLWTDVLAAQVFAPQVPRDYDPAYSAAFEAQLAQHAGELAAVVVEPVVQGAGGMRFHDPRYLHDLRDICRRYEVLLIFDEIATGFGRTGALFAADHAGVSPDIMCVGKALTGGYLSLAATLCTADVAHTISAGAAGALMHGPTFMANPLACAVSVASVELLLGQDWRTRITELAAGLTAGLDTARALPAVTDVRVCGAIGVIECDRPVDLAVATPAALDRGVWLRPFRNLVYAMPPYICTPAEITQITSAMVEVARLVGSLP
The test can be described thus: Mycobacterium tuberculosis BioA enzyme inhibitor Measured in Biochemical System Using Plate Reader - 2163-02_Inhibitor_Dose_CherryPick_Activity. The class given is functional, Mycobacterium tuberculosis UT205.

Test [11] addresses T7, Low molecular weight phosphotyrosine protein phosphatase (Homo sapiens, UniProt P24666).
T7 sequence (P24666 whole entry): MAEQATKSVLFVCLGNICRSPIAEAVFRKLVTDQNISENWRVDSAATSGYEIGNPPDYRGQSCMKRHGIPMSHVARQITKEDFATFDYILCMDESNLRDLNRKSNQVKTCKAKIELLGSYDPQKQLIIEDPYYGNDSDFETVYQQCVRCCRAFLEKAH
The class given is functional. The conditions noted are these: read-out: IC50_Mean.
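For IC50 Mean in this document: Dose-response confirmation assay measuring inhibition of LMPTP enzyme activity by fluorescence intensity read-out.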

As for `O=C(CSc1nnc(NC(=O)c2ccc3c(c2)OCO3)s1)NCc1ccco1`, the AC50 with HEK293 was 2.65 µM (active).
In the case of `Fc1ccc(NC(S)=Nc2cccc3cnccc23)cc1`, the concentration at half-maximal activity (AC50) in [1] is 9.44 µM (active).
On to `O=C(CCCC(=O)N(c1ccc2c(c1)OCCO2)C(C(=O)NC1CCCCC1)c1ccc(F)cc1)Nc1ccccn1` (configuration not stated), for which the AC50 in test [2] is 42.5 µM (active); in test [3], 31.9 µM (active); in test [4], 4.52 µM (active); in test [5], 6.87 µM (active).
As for `Cc1ccc(O)c(C2=Nc3ccccc3C2(C)C)c1`, the IC50 at Caspase-3 is 22.5 µM (active); in test [6], 18.2 µM (active); in test [7], 26.9 µM (active); in test [8], 4.9 µM (active). The AC50 in the test on HeLa is 31.6 µM (active).
Consider `Cn1c(C(=O)NCC2CCCO2)cc2c(=O)n(C)c3ccccc3c21` (configuration not stated), for which the AC50 in [1] is 13.4 µM (active).
Regarding `CCOc1cc(-c2nc3ccccc3s2)ccc1O`, in test [9], the IC50 is 33.4 µM (active). In addition, in test [1], the concentration at half-maximal activity (AC50) was 5.92 µM (active).
In the case of `Cc1nc2ccccc2nc(C)c1=NOCc1cccc(Cl)c1`, the concentration at half-maximal activity (AC50) in test [2] was 11.6 µM (active); in test [3], 0.421 µM (active); in test [4], 13 µM (active); in test [5], 10.3 µM (active).
In the case of `COc1ccc(F)cc1C(=O)C1CCCN(C(=O)c2ccc(C(C)=O)s2)C1` (configuration not stated), the AC50 in test [10] is 1.06 µM (active).
On to `C[C@@]12C(=O)N(Cc3ccco3)CC(=O)N1[C@H]1c3ccccc3OC[C@@H]1[C@@H]2c1ccccc1`, for which the concentration at half-maximal activity (AC50) is 12.4 µM (active) in test [2], 3.09 µM (active) in test [4] and 3.14 µM (active) in [5].
As for `CC(=O)c1c(C)[nH]c(C(=O)Nc2cccnc2)c1C`, the AC50 in test [10] is 3 µM (active).
On the same count and under the same terms, with `C[C@@H]1CN([C@H](C)CO)C(=O)c2cc(C#Cc3cccnc3)cnc2O[C@H]1CN(C)S(C)(=O)=O` the figure was 3.35 µM (active).
Take `CN(C)C(=O)C[C@@H]1C[C@H]2c3cc(NS(=O)(=O)c4ccc(F)cc4)ccc3O[C@H]2[C@H](CO)O1`: the AC50 in test [3] is 3.41 µM (active).
As for `COc1ccc(C(=O)Nc2cccc(C(=O)N/N=C/c3ccc(OC)cc3OC)c2)cc1`, the AC50 in the test with HEK293 was 1.79 µM (active).
With `CN(C)c1ccc(/C=N/NC(=O)c2nnn(-c3nonc3N)c2COc2ccc(F)cc2)cc1`, the IC50 in [11] is 12 µM (active).
